Experimental data as given in patent publication US9944927B2, “Therapeutic applications of p53 isoforms in regenerative medicine, aging and cancer” (The United States of America as Represented by the …, priority 2007, dated 2018).

Legend:
Assay type in all cases: cell-based, human
[1] = tested on: MRC-5 and WI-38 fibroblasts; test: cellular replicative lifespan (cumulative population doublings)
Description: (§1) For cell proliferation assay, 2.4×10^5 cells per well were plated into 12-well plates. These cells were collected and counted daily for a week using a hematocytometer. The experiments were performed at least twice and data at each time point were in triplicate. For examining cellular replicative lifespan, the number of cells was counted at each passage, and the number of population doublings (PDL) achieved between passages was determined by log2 (number of cells obtained/number of cells inoculated) (Michishita, E. et al., Mol. Biol. Cell 16:4623 (2005); Pereira-Smith, O. M. et al., Somatic Cell Genet. 7:411 (1981)). […] The incorporated BrdU was detected using an anti-BrdU monoclonal antibody (Amersham Biosciences) and observed with a fluorescent microscope. […]
as §1, with “The experiments were performed at least twice and data at each time point were in triplicate.” left out, “inoculated)^29.” for “inoculated) (Michishita, E. et al., Mol. Biol. Cell 16:4623 (2005); Pereira-Smith, O. M. et al., Somatic Cell Genet. 7:411 (1981)).”

[2] = tested on: hTERT/NHF cells; test: Nutlin-3A-induced senescence, SA-β-gal assay; conditions: 10 μM Nutlin-3A for 72 h
[3] = tested on: miR-34a; test: real-time qRT-PCR of miR-34a expression; conditions: for miR-34a expression at Δ133p53 knockdown-induced senescence: siRNA-transfected MRC-5 and WI-38
Description: (§2) RNA samples were prepared by using Trizol (Invitrogen). Reverse transcriptase reactions were performed using TagMan miRNA reverse transcription kit (Applied Biosystems, cat. no. 4366596) and a miR-34a-specific primer. The TagMan miRNA assay kit for miR-34a (Applied Biosystems, cat. no. 4373278) was used according to the supplier's protocol. Real-time PCR reactions were performed in triplicate. RNU66 (Applied Biosystems, cat. no. 4373382) was used as a control for quantification. Based on Ct (cycle threshold) values from miR-34a and RNU66 detections, normalized miR-34a expression was calculated by using the […] method according to the supplier's protocol (protocol no. 4310255B and User Bulletin no. 4303859B found on the world wide web at appliedbiosystems.com/index.cfm).
as §2, with “TaqMan microRNA” for “TagMan miRNA”

[4] = tested on: MRC-5 and WI-38 fibroblasts; test: BrdU incorporation assay; conditions: siRNA-transfected early-passage MRC-5 and WI-38, day 7; 10 μM BrdU 24 h
Description: as §1
as §1, with “The experiments were performed at least twice and data at each time point were in triplicate.” left out, “inoculated)^29.” for “inoculated) (Michishita, E. et al., Mol. Biol. Cell 16:4623 (2005); Pereira-Smith, O. M. et al., Somatic Cell Genet. 7:411 (1981)).”

[5] = tested on: caspase-3 and PARP; test: apoptosis immunoblot of caspase-3 and PARP; conditions: for cleaved caspase-3 or PARP (apoptosis): siRNA-transfected MRC-5 and WI-38
Description: Cells or tissues were lysed in RIPA buffer [10 mM Tris-HCl, pH 7.5, 150 mM NaCl, 0.1% SDS, 0.1% sodium deoxycholate, 1 mM EDTA, 1% NP-40, complete protease inhibitors (Roche, Indianapolis, Ind.), phoshatase inhibitor cocktail 1 and 2 (Sigma-Aldrich)]. SDS-PAGE, transfer to nitrocellulose or PVDF membranes (Bio-Rad, Hercules, Calif.), incubation with antibodies, and signal detection followed the standard procedures using ECL detection (Amersham Biosciences, Piscataway, N.J.) or SuperSignal West Dura Extended Duration system (Pierce Biotechnology, Rockford, Ill.). The quantitative analysis of the immunoblot data was performed using the ImageJ 1.40 g software (on the world wide web at rsb.info.nih.gov/ij/).
A polyclonal antibody specifically recognizing Δ133p53 (MAP4) was raised at Moravian Biotechnology (Brno, Czech Republic) in rabbits injected with a mixture of peptides, MFCQLAKTC (SEQ ID NO:13) and FCQLAKTCP (SEQ ID NO: 14), which were synthesized as Multiple Antigenic Peptide by Dr. G. Bloomberg (University of Bristol, Bristol, UK). The other primary antibodies used were: TLQ40^5 for p53β; CM1^5, DO-12 (Millipore, Billerica, Mass.) and DO-1 (Santa Cruz Biotechnology, Santa Cruz, Calif.) for p53; EA10 (Carbiochem, San Diego, Calif.) for p21^WAF1; SMP14 (Santa Cruz Biotechnology) for MDM2; 8G10 (Cell Signaling Technology, Danvers, Mass.) for caspase-3; M2 monoclonal antibody (Sigma-Aldrich) for FLAG tag; AC-15 (Sigma-Aldrich) for β-actin; MAB3450 (Chemicon International, Temecula, Calif.) for HP1-γ; anti-phospho-p53 (Ser15) (Cell Signaling Technology); anti-PARP (Cell Signaling Technology); FITC-conjugated anti-CD8 (BD Biosciences, Franklin Lakes, N.J.); APC-conjugated anti-CD28 (BD Biosciences); and PE-conjugated anti-CD57 (Abcam, Cambridge, Mass.). Horseradish peroxidase-conjugated goat anti-mouse or anti-rabbit antibodies (Santa Cruz Biotechnology) were used as secondary antibodies in immunoblots.

[6] = tested on: MRC-5 and WI-38 fibroblasts; test: cellular senescence: senescent growth arrest, SA-β-gal staining; conditions: siRNA-transfected early-passage MRC-5 and WI-38, day 7
[7] = tested on: p21^WAF1 and MDM2; test: immunoblot of p53 transcriptional targets p21WAF1 and MDM2; conditions: siRNA-transfected early-passage MRC-5 and WI-38, day 7
Description: Cells were lysed in RIPA buffer [10 mM Tris-HCl, pH 7.5, 150 mM NaCl, 0.1% SDS, 0.1% sodium deoxycholate, 1 mM EDTA, 1% NP-40, complete protease inhibitors (Roche), phosphatase inhibitor cocktail 1 and 2 (Sigma)]. Lysates were separated by SDS-PAGE and transferred to nitrocellulose membranes (BIO-RAD) Immunoblot analysis was accomplished according to standard procedures using ECL detection (Amersham Bioscience) or SuperSignal West Dura Extended Duration system (PIERCE).
A polyclonal antibody specifically recognizing Δ133p53 (MAP4) was raised at Moravian Biotechnology (Brno, Czech Republic) in rabbits injected with a mixture of peptides MFCQLAKTC (SEQ ID NO:13) and FCQLAKTCP (SEQ ID NO:14), which were synthesized as Multiple Antigenic Peptide by G. Bloomberg (University of Bristol, Bristol, UK). […]
Cells or tissues were lysed in RIPA buffer [10 mM Tris-HCl, pH 7.5, 150 mM NaCl, 0.1% SDS, 0.1% sodium deoxycholate, 1 mM EDTA, 1% NP-40, complete protease inhibitors (Roche, Indianapolis, Ind.), phoshatase inhibitor cocktail 1 and 2 (Sigma-Aldrich)]. […] The quantitative analysis of the immunoblot data was performed using the ImageJ 1.40 g software (on the world wide web at rsb.info.nih.gov/ij/). […]

[8] = tested on: PAI-1; test: real-time qRT-PCR of PAI-1 mRNA; conditions: siRNA-transfected early-passage WI-38, day 7
Source text: For quantitative measurement of PAI-1 mRNA, the SYBR Green PCR Master Mix (Applied Biosystems) was used with the following primers: 5′-CTC CTG GTT CTG CCC AAG T-3′ (SEQ ID NO:15) and 5′-CAGGTTCTCTAGGGGCTTCC-3′ (SEQ ID NO:16) for PAI-1; and 5′-TTC TGG CCT GGA GGC TAT C-3′ (SEQ ID NO:17) and 5′-TCAGGAAATTTGACTTTCCATTC-3′ (SEQ ID NO:18) for β-2 microglobulin as an internal control. For IL-8 and IL-8R, the Taqman Universal PCR Master Mix (Applied Biosystems) was used with the following sets of probe and primers purchased from Applied Biosystems: IL-8 (catalog #4331182, Hs00174103_m1); IL-8R (catalog #4331182, Hs001174304_m1); and 18S endogenous control (catalog #4319413).

Compound | BrdU incorporation [4] | cleaved caspase-3 or PARP (apoptosis) [5] | SA-β-gal activity [6] | p21^WAF1 expression [7] | PAI-1 expression [8] | miR-34a expression at Δ133p53 knockdown-induced senescence [3] | further results
5′-AACAACCAGCUAAGACACUGCCA-3′ (antisense AACAACCAGCUAAGACACUGCCA; all 2'-O-methyl, backbone not given here) [antisense miR-34a] |  |  |  |  |  |  | replicative lifespan ([1]; late-passage MRC-5, antisense 40 nM transfected every 4 days): extended the replicative lifespan; extension of replicative lifespan ([1]; late-passage MRC-5 at passage 58, antisense transfected every 4 days): approximately five; inhibition of Nutlin-3A-induced senescence [2]: approximately 50%; miR-34a expression after antisense transfection ([3]; late-passage MRC-5, antisense 40 nM): downregulation of miR-34a expression was confirmed
5′-CUU GUG CCC UGA CUU UCA A[dT][dT]-3′ [Δ133si-2] | attenuation of BrdU incorporation | No cleaved caspase-3 or PARP was observed | induction of SA-β-gal activity | upregulation of p21^WAF1 | upregulation | not upregulated | 
COc1ccc(C2=N[C@@H](c3ccc(Cl)cc3)[C@@H](c3ccc(Cl)cc3)N2C(=O)N2CCNC(=O)C2)c(OC(C)C)c1 [Nutlin-3a, reference compound] |  |  |  |  |  |  | miR-34a expression ([3]; hTERT/NHF cells, p53 shRNA, or 10 μM Nutlin-3a for 36 h): induced
5′-UGUUCACUUGUGCCCUGACUUUCAA-3′ [Δ133si-1] | attenuation of BrdU incorporation | No cleaved caspase-3 or PARP was observed | induction of SA-β-gal activity | upregulation of p21^WAF1 | upregulation | not upregulated | 
COc1cccc2c1C(=O)c1c(O)c3c(c(O)c1C2=O)C[C@@](O)(C(=O)CO)C[C@@H]3O[C@H]1C[C@H](N)[C@H](O)[C@H](C)O1 [doxorubicin, reference compound] |  |  |  |  |  |  | apoptosis (caspase-3, PARP immunoblot) ([5]; RKO cells, positive control): showing apoptosis
